In brackets after ≈: the same amount, converted by molar mass.

One assay concerns P. aeruginosa. In words: Biofilm growth assay (spreading biofilm on semi-solid agar). The assay is classed as cell-based. Conditions: Pseudomonas aeruginosa; Table 3; concentration that reduces the area of the spreading biofilm by >= 85%; read-out: P. aeruginosa.
A further assay concerns E. coli. The assay is described as above. The assay is classed as cell-based. Conditions: Escherichia coli; Table 3; concentration that reduces the area of the spreading biofilm by >= 85%; read-out: E. coli. An outline of the steps:
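Spreading (swarming) biofilm on semi-solid agar: E. coli on LB with 0.6% agar and 0.5% glucose; P. aeruginosa on M8 agar with 0.2% glucose, 100 µM CaCl2, 1 mM MgSO4, 0.5% Casamino acids. Compound in medium; 5 µL overnight culture spotted centrally, 37°C overnight. Value: concentration (µg/ml) giving ≥85% reduction in spread area versus negative control.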

As for `CC1(C)CC[C@]2(C(=O)O)CC[C@]3(C)C(=C(c4coc(CN5CCOCC5)c4)CC4[C@@]5(C)Cc6c(n[nH]c6N)C(C)(C)[C@@H]5CC[C@]43C)[C@@H]2C1` (stereo partly drawn) [Compound 40, (4aS,6aS,6bR,8aR,13aR,15bS)-12-Amino-2,2,6a,6b,9,9,13a-heptamethyl-15-(5-(morpholinomethyl)furan-3-yl)-2,3,4,4a,5,6,6a,6b,7,8,8a,9,11,13,13a,13b,14,15b-octadecahydro-1H-chryseno[1,2-f]indazole-4a-carboxylic acid], the IC85 with P. aeruginosa was found to be 0.5 µg/mL (≈ 0.759 µM); in the assay with E. coli it was 2 µg/mL (≈ 3.04 µM).

For the compound `CC1(C)CC[C@]2(C(=O)O)CC[C@]3(C)C(=C(c4ccc(N)nc4)CC4[C@@]5(C)Cc6c(n[nH]c6N)C(C)(C)[C@@H]5CC[C@]43C)[C@@H]2C1` (stereo partly drawn) [Compound 41, (4aS,6aS,6bR,8aR,13aR,15bS)-12-Amino-15-(6-aminopyridin-3-yl)-2,2,6a,6b,9,9,13a-heptamethyl-2,3,4,4a,5,6,6a,6b,7,8,8a,9,11,13,13a,13b,14,15b-octadecahydro-1H-chryseno[1,2-f]indazole-4a-carboxylic acid], the IC85 in the assay on P. aeruginosa came to 1 µg/mL (≈ 1.71 µM); with E. coli, 2 µg/mL (≈ 3.41 µM).

On to `COc1ccc(C2=C3[C@@H]4CC(C)(C)CC[C@]4(C(=O)O)CC[C@@]3(C)[C@]3(C)CC[C@H]4C(C)(C)c5n[nH]c(N)c5C[C@]4(C)C3C2)cn1` (stereo partly drawn) [Compound 42, (4aS,6aS,6bR,8aR,13aR,15bS)-12-Amino-15-(6-methoxypyridin-3-yl)-2,2,6a,6b,9,9,13a-heptamethyl-2,3,4,4a,5,6,6a,6b,7,8,8a,9,11,13,13a,13b,14,15b-octadecahydro-1H-chryseno[1,2-f]indazole-4a-carboxylic acid], for which the IC85 in the assay on P. aeruginosa amounted to 0.25 µg/mL (≈ 0.416 µM); with E. coli it was 1 µg/mL (≈ 1.66 µM).

Turning to `CNc1ccc(C2=C3[C@@H]4CC(C)(C)CC[C@]4(C(=O)O)CC[C@@]3(C)[C@]3(C)CC[C@H]4C(C)(C)c5n[nH]c(N)c5C[C@]4(C)C3C2)cn1` (stereo partly drawn) [Compound 43, (4aS,6aS,6bR,8aR,13aR,15bS)-12-Amino-2,2,6a,6b,9,9,13a-heptamethyl-15-(6-(methylamino)pyridin-3-yl)-2,3,4,4a,5,6,6a,6b,7,8,8a,9,11,13,13a,13b,14,15b-octadecahydro-1H-chryseno[1,2-f]indazole-4a-carboxylic acid], the IC85 in the assay on P. aeruginosa and in the assay on E. coli was 1 µg/mL (≈ 1.67 µM) each time.

Turning to `CN(C)c1ccc(C2=C3[C@@H]4CC(C)(C)CC[C@]4(C(=O)O)CC[C@@]3(C)[C@]3(C)CC[C@H]4C(C)(C)c5n[nH]c(N)c5C[C@]4(C)C3C2)cn1` (stereo partly drawn) [Compound 44, (4aS,6aS,6bR,8aR,13aR,15bS)-12-Amino-15-(6-(dimethylamino)pyridin-3-yl)-2,2,6a,6b,9,9,13a-heptamethyl-2,3,4,4a,5,6,6a,6b,7,8,8a,9,11,13,13a,13b,14,15b-octadecahydro-1H-chryseno[1,2-f]indazole-4a-carboxylic acid], the IC85 is 0.5 µg/mL (≈ 0.814 µM) in the assay with P. aeruginosa and 2 µg/mL (≈ 3.26 µM) in the assay with E. coli.

With `CC1(C)CC[C@]2(C(=O)O)CC[C@]3(C)C(=C(c4ccc(N5CCCC5)nc4)CC4[C@@]5(C)Cc6c(n[nH]c6N)C(C)(C)C5CC[C@]43C)C2C1` (stereo partly drawn) [Compound 45, (4aS,6aS,6bR,13aR)-12-Amino-2,2,6a,6b,9,9,13a-heptamethyl-15-(6-(pyrrolidin-1-yl)pyridin-3-yl)-2,3,4,4a,5,6,6a,6b,7,8,8a,9,11,13,13a,13b,14,15b-octadecahydro-1H-chryseno[1,2-f]indazole-4a-carboxylic acid], the results for the IC85 in the assay with P. aeruginosa and in the assay with E. coli were 0.5 µg/mL (≈ 0.781 µM) and 1 µg/mL (≈ 1.56 µM), respectively.

On to `CC1(C)CC[C@]2(C(=O)O)CC[C@]3(C)C(=C(c4cccc5cnccc45)CC4[C@@]5(C)Cc6c(n[nH]c6N)C(C)(C)C5CC[C@]43C)C2C1` (stereo partly drawn) [Compound 46, (4aS,6aS,6bR,13aR)-12-Amino-15-(isoquinolin-5-yl)-2,2,6a,6b,9,9,13a-heptamethyl-2,3,4,4a,5,6,6a,6b,7,8,8a,9,11,13,13a,13b,14,15b-octadecahydro-1H-chryseno[1,2-f]indazole-4a-carboxylic acid], for which the IC85 came to 0.5 µg/mL (≈ 0.805 µM) in the assay on P. aeruginosa and 1 µg/mL (≈ 1.61 µM) in the assay on E. coli.

`CC1(C)CC[C@]2(C(=O)O)CC[C@]3(C)C(=C(c4cccc5c4CCNC5)CC4[C@@]5(C)Cc6c(n[nH]c6N)C(C)(C)C5CC[C@]43C)C2C1` (stereo partly drawn) [Compound 47, (4aS,6aS,6bR,13aR)-12-Amino-2,2,6a,6b,9,9,13a-heptamethyl-15-(1,2,3,4-tetrahydroisoquinolin-5-yl)-2,3,4,4a,5,6,6a,6b,7,8,8a,9,11,13,13a,13b,14,15b-octadecahydro-1H-chryseno[1,2-f]indazole-4a-carboxylic acid]: the figures for the IC85 in the assay on P. aeruginosa and in the assay on E. coli were 0.5 µg/mL (≈ 0.8 µM) and 1 µg/mL (≈ 1.6 µM), respectively.

As for `CC1(C)CC[C@]2(C(=O)O)CC[C@]3(C)C(=C(c4cccc5[nH]ccc45)CC4[C@@]5(C)Cc6c(n[nH]c6N)C(C)(C)C5CC[C@]43C)C2C1` (stereo partly drawn) [Compound 48, (4aS,6aS,6bR,13aR)-12-Amino-15-(1H-indol-4-yl)-2,2,6a,6b,9,9,13a-heptamethyl-2,3,4,4a,5,6,6a,6b,7,8,8a,9,11,13,13a,13b,14,15b-octadecahydro-1H-chryseno[1,2-f]indazole-4a-carboxylic acid], the IC85 in the assay on P. aeruginosa was found to be 0.5 µg/mL (≈ 0.821 µM); in the assay with E. coli, 1 µg/mL (≈ 1.64 µM).

On to `CC1(C)CC[C@]2(C(=O)O)CC[C@]3(C)C(=C(c4ccc5[nH]ccc5c4)CC4[C@@]5(C)Cc6c(n[nH]c6N)C(C)(C)C5CC[C@]43C)C2C1` (stereo partly drawn) [Compound 49, (4aS,6aS,6bR,13aR)-12-Amino-15-(1H-indol-5-yl)-2,2,6a,6b,9,9,13a-heptamethyl-2,3,4,4a,5,6,6a,6b,7,8,8a,9,11,13,13a,13b,14,15b-octadecahydro-1H-chryseno[1,2-f]indazole-4a-carboxylic acid], for which the IC85 in the assay on P. aeruginosa was 0.5 µg/mL (≈ 0.821 µM); in the assay on E. coli, over 1 µg/mL.

For `CC1(C)CC[C@]2(C(=O)O)CC[C@]3(C)C(=C(c4ccc(N5CCNCC5)cc4)CC4[C@@]5(C)Cc6c(n[nH]c6N)C(C)(C)C5CC[C@]43C)C2C1` (stereo partly drawn) [Compound 50, (4aS,6aS,6bR,13aR)-12-Amino-2,2,6a,6b,9,9,13a-heptamethyl-15-(4-(piperazin-1-yl)phenyl)-2,3,4,4a,5,6,6a,6b,7,8,8a,9,11,13,13a,13b,14,15b-octadecahydro-1H-chryseno[1,2-f]indazole-4a-carboxylic acid], the IC85 with P. aeruginosa stood at 2 µg/mL (≈ 3.06 µM); in the assay with E. coli, 1 µg/mL (≈ 1.53 µM).

In the case of `CC1(C)CC[C@]2(C(=O)O)CC[C@]3(C)C(=C(c4ccc(N5CCOCC5)cc4)CC4[C@@]5(C)Cc6c(n[nH]c6N)C(C)(C)C5CC[C@]43C)C2C1` (stereo partly drawn) [Compound 51, (4aS,6aS,6bR,13aR)-12-Amino-2,2,6a,6b,9,9,13a-heptamethyl-15-(4-morpholinophenyl)-2,3,4,4a,5,6,6a,6b,7,8,8a,9,11,13,13a,13b,14,15b-octadecahydro-1H-chryseno[1,2-f]indazole-4a-carboxylic acid], the IC85 in the assay with P. aeruginosa stood at 0.5 µg/mL (≈ 0.763 µM); in the assay on E. coli, 2 µg/mL (≈ 3.05 µM).

`CC1(C)CC[C@]2(C(=O)O)CC[C@]3(C)C(=C(c4ccc(CN5CCOCC5)cc4)CC4[C@@]5(C)Cc6c(n[nH]c6N)C(C)(C)C5CC[C@]43C)C2C1` (stereo partly drawn) [Compound 52, (4aS,6aS,6bR,13aR)-12-Amino-2,2,6a,6b,9,9,13a-heptamethyl-15-(4-(morpholinomethyl)phenyl)-2,3,4,4a,5,6,6a,6b,7,8,8a,9,11,13,13a,13b,14,15b-octadecahydro-1H-chryseno[1,2-f]indazole-4a-carboxylic acid]: the results for the IC85 with P. aeruginosa and with E. coli were 1 µg/mL (≈ 1.49 µM) and 2 µg/mL (≈ 2.99 µM), respectively.

Regarding `CN1CCN(c2ccc(C3=C4C5CC(C)(C)CC[C@]5(C(=O)O)CC[C@@]4(C)[C@]4(C)CCC5C(C)(C)c6n[nH]c(N)c6C[C@]5(C)C4C3)cc2)CC1` (stereo partly drawn) [Compound 53, (4aS,6aS,6bR,13aR)-12-Amino-2,2,6a,6b,9,9,13a-heptamethyl-15-(4-(4-methylpiperazin-1-yl)phenyl)-2,3,4,4a,5,6,6a,6b,7,8,8a,9,11,13,13a,13b,14,15b-octadecahydro-1H-chryseno[1,2-f]indazole-4a-carboxylic acid], the IC85 worked out at 0.5 µg/mL (≈ 0.749 µM) in the assay with P. aeruginosa and 2 µg/mL (≈ 2.99 µM) with E. coli.

As to `CC1(C)CC[C@]2(C(=O)O)CC[C@]3(C)C(=C(c4ccc(N5CCOCC5)nc4)CC4[C@@]5(C)Cc6c(n[nH]c6N)C(C)(C)[C@@H]5CC[C@]43C)[C@@H]2C1` (stereo partly drawn) [Compound 54, (4aS,6aS,6bR,8aR,13aR,15bS)-12-Amino-2,2,6a,6b,9,9,13a-heptamethyl-15-(6-morpholinopyridin-3-yl)-2,3,4,4a,5,6,6a,6b,7,8,8a,9,11,13,13a,13b,14,15b-octadecahydro-1H-chryseno[1,2-f]indazole-4a-carboxylic acid], the IC85 stood at 1 µg/mL (≈ 1.52 µM) in the assay on P. aeruginosa and 2 µg/mL (≈ 3.05 µM) in the assay on E. coli.

In the case of `CC1(C)CC[C@]2(C(=O)O)CC[C@]3(C)C(=C(c4ccc(N5CCNCC5)nc4)CC4[C@@]5(C)Cc6c(n[nH]c6N)C(C)(C)C5CC[C@]43C)C2C1` (stereo partly drawn) [Compound 55, (4aS,6aS,6bR,13aR)-12-Amino-2,2,6a,6b,9,9,13a-heptamethyl-15-(6-(piperazin-1-yl)pyridin-3-yl)-2,3,4,4a,5,6,6a,6b,7,8,8a,9,11,13,13a,13b,14,15b-octadecahydro-1H-chryseno[1,2-f]indazole-4a-carboxylic acid], the IC85 is over 1 µg/mL with P. aeruginosa and 2 µg/mL (≈ 3.05 µM) with E. coli.

On to `CN1CCN(c2ccc(C3=C4C5CC(C)(C)CC[C@]5(C(=O)O)CC[C@@]4(C)[C@]4(C)CCC5C(C)(C)c6n[nH]c(N)c6C[C@]5(C)C4C3)cn2)CC1` (stereo partly drawn) [Compound 56, (4aS,6aS,6bR,13aR)-12-Amino-2,2,6a,6b,9,9,13a-heptamethyl-15-(6-(4-methylpiperazin-1-yl)pyridin-3-yl)-2,3,4,4a,5,6,6a,6b,7,8,8a,9,11,13,13a,13b,14,15b-octadecahydro-1H-chryseno[1,2-f]indazole-4a-carboxylic acid], for which the IC85 was 1 µg/mL (≈ 1.49 µM) with P. aeruginosa and 2 µg/mL (≈ 2.99 µM) in the assay on E. coli.
